# Assay results from USRE34918E, “Azaazulene compounds which are useful as antiallergic and antiinflammatory agents” (Kaken Pharmaceutical Co., Ltd., priority 1988, dated 1995).
# “And” between values parts separate entries of the source, which are not always exact repeats. Equal values may be shown once.
# Key:
# [1] = test system: PCA (homologous passive cutaneous anaphylaxis) in rat; assay: Inhibitory activity against PCA in rat; format: in vivo, rat (male Slc: Wistar); conditions: Rattus norvegicus; 5 mg/kg oral, 1 hour before antigen challenge; read-out: Inhibition rate against PCA
# Procedure: An anti-dinitrophenylated-ovalbumin (hereinafter referred to as "anti-DNP-OVA") rat antiserum having 800 of PCA titer in homologous passive cutaneous anaphylaxis reaction in rats for 48 hours, was diluted 200 times with physiological saline, and diluted antiserum was injected intradermally into back of groups of 5 male Slc: Wistar rats weighing 130-150 g in a volume of 50 μl/site to be passively sensitized. After 48 hours, 0.6 ml of 1% (w/v) Evans blue solution containing 1.5 mg of antigen DNP-OVA was administered intravenously into the tail. Thirty minutes later, the rats were bled to death and skin of the rats was removed. According to the method of Katayama et al [Microbiol. […] The test compound was suspended in 0.5% (w/v) aqueous solution of carboxymethylcellulose (hereinafter referred to as "CMC"), the suspension was administered orally in a ratio of 5 mg/kg 1 hour before challenging an antigen.
# Inhibition rate against PCA was calculated according to the following equation. [formula] M: Amount of leaked pigment in antibody-sensitized site under administration of CMC without the test compound
# S: Amount of leaked pigment in antibody-sensitized site under administration of the test compound in CMC
# B: Amount of leaked pigment in antibody-nonsensitized site
# [2] = test system: carrageenin edema in a foot-pad of rat; assay: Effect on carrageenin edema in a foot-pad of rat; format: in vivo, rat (male Wister); conditions: 50 mg/kg p.o., 4 hours after carrageenin
# Procedure: The test was carried out according to the modified method on a method of Winter et al [Proc. Soc. Exp. Biol Med., 111, 544-547 (1962)]. Five male Wister rats weighing 148 to 162 g which were subjected to fasting for 24 hours were used as one group.
# The test compound was suspended in 0.5% aqueous solution of CMC, and the suspension was administered orally in a amount of 50 mg/kg. After 60 minutes, 0.1 ml of 1% carrageenin solution in physiological saline was injected subcutaneously into the foot-pad of the left hind foot. Four hours after the injection of carrageenin, the volume of the foot-pad was measured by the apparatus for measurement of foot-pad volume in rat (commercially available from Ugobasile).
# Swelling volume was calculated from the difference between a volume of foot-pad before inflaming the foot-pad, i.e. normal volume and that after inflaming it. Effect of a test compound was expressed as inhibition rate against swelling by calculating percentage in comparison with the 0.5% CMC administration group.
# Indomethacin (commercially available from Merck Co.) was used as a positive comparative drug.
# [3] = test system: histamine release from rat mast cell; assay: Inhibitory activity against histamine release from rat mast cell; format: cell-based; conditions: 10 μg/ml, read-out: Inhibitory rate against histamine release
# Acute toxicity in mouse = format: in vivo; conditions: 2 weeks observation
# Procedure: The test was carried out with the compounds obtained in Examples 5 and 9. Groups of 5 male ddy mice weighing 26 to 28 g were employed. The test compounds were suspended in a 0.5% CMC aqueous solution and the resulting suspension was administered orally in an amount of 500 for the compound obtained in Example 9, 1000 or 2000 mg/kg body weight. The survivors were kept under observation daily for 2 weeks. From the results shown in Table 6, the LD50 of the compounds obtained in Example 5 and 9 were estimated to be more than 2000 mg/kg. The other compounds of the present invention also had the same toxicity as the above compounds.
smiles,measurement,setting,value
"CC(C)c1cccc2n(Cc3ccc(F)cc3)c(=O)c(-c3nnn[nH]3)c-2c1 [Example 9, 1-(4-Fluorobenzyl)-5-iso-propyl-3-(5-tetrazolyl)-1-azaazulane-2-one]",inhibition in vivo at 5 mg/kg,[1],84.9 ± 2.2%
same,"Swelling volume 4 hours after inflaming, mean ± standard error",[2],0.55 mL and 0.55 ± 0.032 mL
same,Inhibition rate against swelling,[2]; vs 0.5% CMC group,38.9%
same,inhibition at 10 µg/mL,[3],99.8%
same,Mortality,Acute toxicity in mouse; 500 mg/kg p.o.,0/5
same,Mortality,Acute toxicity in mouse; 1000 mg/kg p.o.,0/5
same,Mortality,Acute toxicity in mouse; 2000 mg/kg p.o.,0/5
same,LD50 at 336 h,"Acute toxicity in mouse; mouse, in vivo, oral",> 2000 mg/kg
